According to patent US9585865B2, “Small molecule modulators of the cold and menthol receptor TRPM8” (B.R.A.I.N. Biotechnology Research and Information Network AG, priority 2011, dated 2017):
Values joined by “and” are separate entries in the source; they are usually repeats but may differ in a detail not shown here. Identical values can stand only once.

Assays:
human TRPM8 = molecular target: T1, human TRPM8 (Homo sapiens, UniProt Q7Z2W7); experiment: functional cell based calcium assay, cells recombinantly expressing human TRPM8; settings: for EC50: activator (agonist) of TRPM8, intracellular calcium, calcium-sensitive dye fluorescence; for EC50 as activator of TRPM8 times lower than EC50 as activator of TRPA1: ratio EC50 TRPA1 / EC50 TRPM8
T1 construct: expressed in transfected cells; host or cells: HEK293 (human cells)
Source text: (§1) As used herein, a functional cell based assay under standard conditions means evaluating the cellular activity of compounds with regard to the modulation of the intracellular calcium level using cells recombinantly expressing human TRPM8 or human TRPA1. In particular, in this context the term “standard conditions” means an activity test using HEK293 cells recombinantly expressing either human TRPM8 or human TRPA1, which cells have been contacted with a calcium-sensitive dye (such as Fluo-4AM, i.e. Fluo-4-acetoxymethylester), wherein the cells are incubated with the compound to be tested, and receptor modulation is quantitatively detected by calcium-dependent changes is fluorescence intensity. Such a test system is disclosed, inter alia, in Behrendt H J et al., Br. J. Pharmacol. 2004, 141:737-745, which is enclosed herein by reference.
(§2) A screening for novel modulators of TRPM8 was conducted. For the screening, a routine screening setup was used. In particular, the compounds comprised by a compound library were tested for agonistic activity towards TRPM8 and a dose response analysis of the most promising candidates was conducted (TRPM8 versus TRPA1). In particular, promising candidates were analyzed with regard to their EC50 values as well as their efficacy values, and 7 development candidates were selected (i.e. Compounds I.3, II.3, III.3, IV.3, V.3, VI.3, and VII.3, as described herein above).
(§3) For the above analysis, a functional cell based assay under standard conditions as described herein was used, i.e. the cellular activity of the compounds with regard to the modulation of the intracellular calcium level was evaluated using cells recombinantly expressing human TRPM8 or human TRPA1. In particular, human cells recombinantly expressing either human TRPM8 or human TRPA1 were used, which cells have been contacted with a calcium-sensitive dye, wherein the cells were incubated with the compound to be tested, and receptor modulation was quantitatively detected by calcium-dependent changes in fluorescence intensity. Such a test system is disclosed, inter alia, in Behrendt H J et al., Br. J. Pharmacol. 2004, 141:737-745, which is enclosed herein by reference. Such a test system is also disclosed, inter alia, in WO 2010/026094, which is also enclosed herein by reference. However, it should be understood that any screening method and method suitable for evaluating the agonistic activity of compounds towards a channel (such as TRPM8) can be used. Suitable methods are routine and known to the skilled person.

human TRPA1 = molecular target: T2, human TRPA1 (Homo sapiens, UniProt O75762); experiment: functional cell based calcium assay, cells recombinantly expressing human TRPA1; settings: activator (agonist) of TRPA1; intracellular calcium, calcium-sensitive dye fluorescence
T2 construct: expressed in transfected cells; host or cells: HEK293 (human cells)
Source text: as §1, §2, §3

T2 sequence (O75762 whole entry): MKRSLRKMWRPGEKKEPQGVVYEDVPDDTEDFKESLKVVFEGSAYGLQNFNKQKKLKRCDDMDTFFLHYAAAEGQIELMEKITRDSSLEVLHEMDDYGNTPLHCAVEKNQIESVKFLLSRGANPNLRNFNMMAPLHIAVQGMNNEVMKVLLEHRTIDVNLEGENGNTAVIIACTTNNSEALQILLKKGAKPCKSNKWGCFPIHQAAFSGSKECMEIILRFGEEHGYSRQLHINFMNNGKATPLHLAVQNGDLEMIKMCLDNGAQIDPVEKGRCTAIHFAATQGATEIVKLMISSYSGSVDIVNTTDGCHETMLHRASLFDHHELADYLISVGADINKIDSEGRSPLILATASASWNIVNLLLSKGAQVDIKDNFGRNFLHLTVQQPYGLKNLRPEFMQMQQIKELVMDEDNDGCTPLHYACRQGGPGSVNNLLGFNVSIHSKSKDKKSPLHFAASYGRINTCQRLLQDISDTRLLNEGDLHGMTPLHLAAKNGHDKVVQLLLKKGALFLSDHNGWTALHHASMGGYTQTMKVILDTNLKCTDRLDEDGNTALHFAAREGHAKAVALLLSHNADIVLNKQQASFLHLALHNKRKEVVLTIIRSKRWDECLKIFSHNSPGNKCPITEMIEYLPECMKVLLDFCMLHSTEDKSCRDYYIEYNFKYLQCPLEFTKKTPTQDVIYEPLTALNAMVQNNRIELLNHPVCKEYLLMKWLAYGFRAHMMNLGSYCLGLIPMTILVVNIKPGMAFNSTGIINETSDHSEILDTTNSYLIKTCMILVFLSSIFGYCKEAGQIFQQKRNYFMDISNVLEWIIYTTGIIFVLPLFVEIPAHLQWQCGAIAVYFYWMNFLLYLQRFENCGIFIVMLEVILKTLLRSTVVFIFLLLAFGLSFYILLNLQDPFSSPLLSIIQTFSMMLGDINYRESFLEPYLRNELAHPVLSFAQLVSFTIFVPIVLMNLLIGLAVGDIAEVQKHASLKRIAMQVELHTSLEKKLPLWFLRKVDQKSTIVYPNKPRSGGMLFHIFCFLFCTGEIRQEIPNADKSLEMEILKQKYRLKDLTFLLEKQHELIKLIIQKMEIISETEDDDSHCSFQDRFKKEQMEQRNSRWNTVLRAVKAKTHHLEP
T1 sequence (Q7Z2W7 whole entry): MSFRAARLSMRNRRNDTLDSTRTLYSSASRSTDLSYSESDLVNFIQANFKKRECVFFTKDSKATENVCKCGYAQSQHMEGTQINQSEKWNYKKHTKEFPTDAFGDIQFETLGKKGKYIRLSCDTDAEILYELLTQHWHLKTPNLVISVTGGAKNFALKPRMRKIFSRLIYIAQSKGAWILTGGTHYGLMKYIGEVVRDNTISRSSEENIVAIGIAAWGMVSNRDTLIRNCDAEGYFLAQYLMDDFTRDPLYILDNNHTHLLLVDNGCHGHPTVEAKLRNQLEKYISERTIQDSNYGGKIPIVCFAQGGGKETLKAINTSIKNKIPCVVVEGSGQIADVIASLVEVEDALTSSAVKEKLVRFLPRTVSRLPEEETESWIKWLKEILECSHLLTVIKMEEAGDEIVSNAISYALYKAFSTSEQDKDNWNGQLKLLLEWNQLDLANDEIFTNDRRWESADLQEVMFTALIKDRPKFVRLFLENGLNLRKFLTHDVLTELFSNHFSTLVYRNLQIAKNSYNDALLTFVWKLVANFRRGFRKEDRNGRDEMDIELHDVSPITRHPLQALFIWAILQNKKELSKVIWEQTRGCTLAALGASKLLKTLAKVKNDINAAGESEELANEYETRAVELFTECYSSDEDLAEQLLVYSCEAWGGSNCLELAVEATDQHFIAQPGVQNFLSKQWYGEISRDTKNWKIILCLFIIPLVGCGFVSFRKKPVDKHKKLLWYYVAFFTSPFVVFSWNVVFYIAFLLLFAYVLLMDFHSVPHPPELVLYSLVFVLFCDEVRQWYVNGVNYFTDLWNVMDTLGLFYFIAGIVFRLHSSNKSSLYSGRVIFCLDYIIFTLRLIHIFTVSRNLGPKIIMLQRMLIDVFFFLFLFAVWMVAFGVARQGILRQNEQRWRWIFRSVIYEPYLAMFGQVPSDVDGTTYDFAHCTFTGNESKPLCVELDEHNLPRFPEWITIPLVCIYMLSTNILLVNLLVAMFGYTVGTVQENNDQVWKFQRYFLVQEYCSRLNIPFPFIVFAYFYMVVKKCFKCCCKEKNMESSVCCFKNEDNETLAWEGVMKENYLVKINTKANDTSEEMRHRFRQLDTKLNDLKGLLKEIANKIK

Compound | EC50 (human TRPM8) | EC50 as activator of TRPM8 times lower than EC50 as activator of TRPA1 (human TRPM8) | EC50 (human TRPA1)
COc1ccc(OC)c(NC=C2C(=O)CC(C)(C)CC2=O)c1 [Compound II.3, 2-{[(2,5-dimethoxyphenyl)amino]methylidene}-5,5-dimethylcyclohexane-1,3-dione] | ~8.01 µM and 8.01 µM | about 15.4 times | ~123 µM and 123 µM
Cc1ccc(-c2cc(C(=O)N/N=C/c3ccncc3)[nH]n2)s1 [Compound III.3, 3-(5-methylthiophen-2-yl)-N′-[(1E)-pyridin-4-ylmethylidene]-1H-pyrazole-5-carbohydrazide] | ~5.27 µM and 5.27 µM | about 21.5 times | ~113 µM and 113 µM
COc1ccc2c(=O)c(-c3ccccc3)c(C)oc2c1 [Compound I.3, 7-methoxy-2-methyl-3-phenyl-4H-chromen-4-one] | ~2.01 µM and 2.01 µM | about 36 times | ~72.4 µM and 72.4 µM
CCCc1cc(=O)[nH]c(SCC(=O)Nc2cc(Cl)ccc2Cl)n1 [Compound IV.3, N-(2,5-dichlorophenyl)-2-[(6-oxo-4-propyl-1,6-dihydropyrimidin-2-yl)sulfanyl]acetamide] | ~4.12 µM and 4.12 µM | about 28.6 times | ~118 µM and 118 µM
Cc1nc2ccccc2n1CCC(=O)N1CCN(Cc2ccc3c(c2)OCO3)CC1 [Compound V.3, 1-[4-(2H-1,3-benzodioxol-5-ylmethyl)piperazin-1-yl]-3-(2-methyl-1H-1,3-benzodiazol-1-yl)propan-1-one] | ~7.53 µM and 7.53 µM | about 18.4 times | ~138 µM and 138 µM
Cc1ccc(C(=O)NCC2(c3ccccc3)CCOCC2)cc1 [Compound VI.3, 4-methyl-N-[(4-phenyloxan-4-yl)methyl]benzamide] | ~8.15 µM and 8.15 µM | about 13.2 times | ~108 µM and 108 µM
CC(C)C(CCNCCCN(C)C)c1ccc(Cl)cc1 (stereo not drawn) [Compound VII.3, [3-(4-chlorophenyl)-4-methylpentyl][3-(dimethylamino)propyl]amine] | ~10.9 µM and 10.9 µM | about 5.2 times | ~56.6 µM and 56.6 µM
